This note sets out measurements from US20190048016A1, “SUBSTITUTED BRIDGED UREA ANALOGS AS SIRTUIN MODULATORS” (GlaxoSmithKline Intellectual Property(No.2)Limited, priority 2014, published 2019).

For the test, the target named is T1, SIRT1 (Homo sapiens, UniProt Q96EB6).
T1 sequence (Q96EB6 1-747): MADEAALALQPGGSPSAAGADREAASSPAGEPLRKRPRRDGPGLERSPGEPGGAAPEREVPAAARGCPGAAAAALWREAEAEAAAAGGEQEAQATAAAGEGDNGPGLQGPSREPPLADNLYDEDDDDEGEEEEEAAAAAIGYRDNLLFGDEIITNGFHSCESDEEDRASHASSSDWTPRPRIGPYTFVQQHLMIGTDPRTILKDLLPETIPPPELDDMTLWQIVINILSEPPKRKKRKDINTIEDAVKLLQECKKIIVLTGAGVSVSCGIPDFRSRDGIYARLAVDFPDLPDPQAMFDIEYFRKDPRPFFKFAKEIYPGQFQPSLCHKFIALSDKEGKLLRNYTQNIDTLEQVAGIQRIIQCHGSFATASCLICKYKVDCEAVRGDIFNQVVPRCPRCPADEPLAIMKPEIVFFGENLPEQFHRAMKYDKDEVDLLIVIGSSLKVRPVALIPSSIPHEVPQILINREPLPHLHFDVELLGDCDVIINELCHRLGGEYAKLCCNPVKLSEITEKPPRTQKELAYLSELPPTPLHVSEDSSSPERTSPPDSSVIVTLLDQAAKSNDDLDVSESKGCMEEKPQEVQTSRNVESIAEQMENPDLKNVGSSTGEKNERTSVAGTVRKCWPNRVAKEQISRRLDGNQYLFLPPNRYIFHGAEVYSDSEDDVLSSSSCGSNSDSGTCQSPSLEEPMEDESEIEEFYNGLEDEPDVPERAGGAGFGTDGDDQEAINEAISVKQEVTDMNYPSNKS
The experiment in a line: Trp mass spectrometry assay of SIRT1 activation (deacetylation of Ac-R-H-K-K(Ac)-W-NH2 peptide, OAADPR formation). The test is classed as biochemical. Conditions: Trp peptide 0.5 μM, 120 μM βNAD+, 10 nM SIRT1, 25 min, 25° C.; for Emax: 25 min, read-out: TRP MAX RESP (percent maximum fold activation relative to control = 100%). The essentials: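 10 nM His-tagged SIRT1 (E. coli expressed) with 0.5 μM Ac-RHKK(Ac)W-NH2 and 120 μM βNAD+, 25 min at 25° C, HEPES pH 7.5, […]; formic acid stop. OAADPR or deacetylated peptide measured by mass spectrometry; EC1.5 = concentration giving 150% activity versus DMSO control; maximum activation also reported.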

A value given as a limit tells only on which side of the number the result lay.

Consider `O=C(Nc1ccccn1)N1c2nc(N3CCC(C(F)(F)F)C3)ccc2N2CCC[C@H]1C2` (single isomer, unassigned) [Example 8], for which the Emax was not below 150% and the “TRP Activity (EC1.5, concentration of compound required to increase SIRT1 activity by 50% over control)” value is recorded as “B (EC1.5 1-25 μM)”.
The corresponding values for `Cc1cc(-c2ccc3c(n2)N(C(=O)Nc2ccncn2)[C@H]2CCCN3C2)ccn1` [Example 12, (9S)-2-(2-methylpyridin-4-yl)-N-(pyrimidin-4-yl)-8,9-dihydro-6H-5,9-methanopyrido[2,3-b][1,4]diazocine-10(7H)-carboxamide] are not below 150% and “A (EC1.5<1 μM)”.
As to `O=C(Nc1cc(OC[C@H](O)CO)ccn1)N1c2nc(-c3cccc(C(F)(F)F)c3)c(Cl)cc2N2CCC[C@H]1C2` [Example 82, (9S)-3-chloro-N-(4-((R)-2,3-dihydroxypropoxy)pyridin-2-yl)-2-(3-(trifluoromethyl)phenyl)-8,9-dihydro-6H-5,9-methanopyrido[2,3-b][1,4]diazocine-10(7H)-carboxamide], the Emax is not below 150% and the “TRP Activity (EC1.5, concentration of compound required to increase SIRT1 activity by 50% over control)” value is reported as “A (EC1.5<1 μM)”.
As for `O=C(Nc1ccnc(OC[C@H](O)CO)c1)N1c2nc(-c3cccc(C(F)(F)F)c3)c(Cl)cc2N2CCC[C@H]1C2` [Example 85, (9S)-3-chloro-N-(2-((R)-2,3-dihydroxypropoxy)pyridin-4-yl)-2-(3-(trifluoromethyl)phenyl)-8,9-dihydro-6H-5,9-methanopyrido[2,3-b][1,4]diazocine-10(7H)-carboxamide], the Emax is not below 150% and the “TRP Activity (EC1.5, concentration of compound required to increase SIRT1 activity by 50% over control)” value is recorded as “A (EC1.5<1 μM)”.
Consider `Cc1cc(-c2nc3c(cc2C)N2CCC[C@@H](C2)N3C(=O)Nc2cccnc2)ccn1` [Example 68, (9S)-3-methyl-2-(2-methylpyridin-4-yl)-N-(pyridin-3-yl)-8,9-dihydro-6H-5,9-methanopyrido[2,3-b][1,4]diazocine-10(7H)-carboxamide], for which the Emax was not below 150% and the “TRP Activity (EC1.5, concentration of compound required to increase SIRT1 activity by 50% over control)” value is “A (EC1.5<1 μM)”.
The matching figures for `O=C(Nc1nccc(OC[C@H](O)CO)n1)N1c2nc(-c3cccc(C(F)(F)F)c3)c(Cl)cc2N2CCC[C@H]1C2` [Example 78, (9S)-3-chloro-N-(4-((R)-2,3-dihydroxypropoxy)pyrimidin-2-yl)-2-(3-(trifluoromethyl)phenyl)-8,9-dihydro-6H-5,9-methanopyrido[2,3-b][1,4]diazocine-10(7H)-carboxamide]: not below 150% and “A (EC1.5<1 μM)”.
